Laboratory results as given in US7109380B2, “Cyclopentenedione antifungal compounds and methods for their use” (The University of Mississippi, priority 2004, dated 2006).
≈ marks a conversion by molar mass, not a printed value.

Assays:
[1] = tested on: Cryptococcus neoformans ATCC 90113; test: In vitro antifungal susceptibility testing (modified NCCLS method); assay type: cell-based; details: Cryptococcus neoformans, ATCC90113; Cr. neoformans ATCC 90113, Table 3; read-out: IC50 (50% inhibitory concentration)
[2] = tested on: C. albicans ATCC 90028; test: In vitro antimicrobial assay (modified NCCLS), Candida media pH 4.5; assay type: cell-based, Candida albicans; details: Candida albicans, ATCC90028, C. albicans ATCC 90028, pH 4.5, Table 3
[3] = tested on: C. glabrata ATCC 90030; test: as above; assay type: cell-based, Candida glabrata; details: Nakaseomyces glabratus, ATCC90030, C. glabrata ATCC 90030, pH 4.5
[4] = tested on: C. krusei ATCC 6258; test: as above; assay type: cell-based, Candida krusei; details: Pichia kudriavzevii, ATCC6258; C. krusei ATCC 6258, pH 4.5; read-out: IC50 (50% inhibitory concentration)
[5] = tested on: Botrytis cinerea; test: 96-well microtiter fungal growth assay; assay type: cell-based;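 also: percent relative to untreated positive growth controls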
Description: (§1) Pathogen collection. Isolates of Colletotrichum acutatum Simmonds, Colletotrichum fragariae Brooks, and Colletotrichum gloeosporioides (Penz.) Penz. & Sacc. in Penz. were obtained from B. J. Smith, USDA, ARS, Small Fruit Research Station, Poplarville, Mass. Colletotrichum fragariae (isolate CF63), C. acutatum (isolate CAGoff), and C. gloeosporioides (isolate CG162) were used for all pathogen and bioautography studies. Isolate CF63 is one of the most virulent isolates at infecting strawberry plants and inducing both crown and fruit rot (Smith and Black, 1990). CF63, CAGoff, and CG162 were used as standard test isolates because of our extensive knowledge of these isolates and their known fungicide sensitivity profiles in both bioautography and microtiter formats. The three Colletotrichum species were isolated from strawberry (Fragaria xananassa Duchesne). Botrytis cinerea Pers.:Fr, was isolated from commercial grape (Vitis vinifera L.) and Fusarium oxysporum Schlechtend:Fr from orchid (Cynoches sp.) by David E. Wedge, USDA ARS Natural Products Utilization Research Unit. Phomopsis viticola (Sacc.) and P. obscurans (Ellis & Everh.) Sutton were from Mike A. Ellis, Ohio State University, Wooster, Ohio. Fungi were grown on potato-dextrose agar (PDA, Difco, Detroit Mich.) in 9 cm petri dishes and incubated in a growth chamber at 24±2° C. and under cool-white fluorescent lights ([…]·m^−2·sec^−1 light) with 12-h photoperiod.
(§2) Inoculum preparation. Conidia were harvested from 7–10 day-old cultures by flooding plates with 5 mL of sterile distilled water and dislodging conidia by softly brushing the colonies with an L-shaped glass rod. Conidial suspensions were filtered through sterile miracloth (Calbiochem-Novabiochem Corp., La Jolla Calif.) to remove mycelia. Conidia concentrations were determined photometrically, from a standard curve based on the absorbance at 625 nm and suspensions were then adjusted with sterile distilled water to a concentration of 1.0×10^6 conidia/mL.
(§3) Microtiter assay. A standardized 96-well microtiter plate assay developed for discovery of natural product fungicidal agents. A 96-well microtiter assay was used to determine sensitivity of B. cinerea, C. acutatum, C. fragariae, C. gloeosporioides, F. oxysporum, Phomopsis viticola, and P. obscurans to the various antifungal agents in comparison with known fungicidal standards. Vinclozolin, captan, and thiabendazole, which represent three different modes of action, were used as standards in this experiment. Each fungus was challenged in a dose-response format using test compounds where the final treatment concentrations were 0.3, 3.0 and 30.0 μM. Microtiter plates (Nunc MicroWell, untreated; Roskilde, Denmark) were covered with a plastic lid and incubated in a growth chamber at 24±1 C and 12 h photoperiod under 60±5 μmol light. Growth was then evaluated by measuring absorbance of each well at 620 nm using a microplate photometer (Packard Spectra Count, Packard Instrument Co., Downers Grove, Ill.).
(§4) Microbioassay Experimental Design. Chemical sensitivity of each fungus 96-well microtiter assay is used to determine sensitivity of B. cinerea, C. acutatum, C. fragariae, C. gloeosporioides, F. oxysporum, Phomopsis viticola, and P. obscurans. Each chemical is evaluated in duplicate at each dose (0.3, 3.0 and 30.0 μM) and repeated twice in time. Sixteen wells containing broth and inoculum serves as positive controls, eight wells containing solvent at the appropriate concentration and broth without inoculum are used as negative controls. Mean absorbance values and standard errors is used to evaluate fungal growth at 48 hrs and 72 hrs except for P. obscurans and P. viticola the data are recorded at 120 hrs. […] Treatments are arranged as a split-plot design replicated twice in time. Whole-plots were fungal isolates and sub-plots are chemicals. Each dose level and response time is analyzed separately. […]

[6] = tested on: Colletotrichum acutatum; test: 96-well microtiter fungal growth assay; assay type: cell-based;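 also: percent relative to untreated positive growth controls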
Description: as §1, §2, §3, §4

[7] = tested on: Colletotrichum fragariae; test: 96-well microtiter fungal growth assay; assay type: cell-based;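 also: percent relative to untreated positive growth controls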
Description: as §1, §2, §3, §4

[8] = tested on: Colletotrichum gloeosporioides; test: 96-well microtiter fungal growth assay; assay type: cell-based;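 also: percent relative to untreated positive growth controls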
Description: as §1, §2, §3, §4

[9] = tested on: Fusarium oxysporum; test: 96-well microtiter fungal growth assay; assay type: cell-based;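 also: percent relative to untreated positive growth controls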
Description: as §1, §2, §3, §4

[10] = tested on: Phomopsis obscurans; test: 96-well microtiter fungal growth assay; assay type: cell-based
Description: as §1, §2, §3
(§5) Microbioassay Experimental Design. Chemical sensitivity of each fungus 96-well microtiter assay is used to determine sensitivity of B. cinerea, C. acutatum, C. fragariae, C. gloeosporioides, F. oxysporum, Phomopsis viticola, and P. obscurans. Each chemical is evaluated in duplicate at each dose (0.3, 3.0 and 30.0 μM) and repeated twice in time. Sixteen wells containing broth and inoculum serves as positive controls, eight wells containing solvent at the appropriate concentration and broth without inoculum are used as negative controls. […] Treatments are arranged as a split-plot design replicated twice in time. Whole-plots were fungal isolates and sub-plots are chemicals. Each dose level and response time is analyzed separately. The SAS system's analysis of variance procedure (Statistical Analysis System, Cary, N.C.) is used to identify significant factors and Fisher's protected LSD is used to separate means.

[11] = tested on: Phomopsis viticola; test: 96-well microtiter fungal growth assay; assay type: cell-based;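 also: percent relative to untreated positive growth controls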
Description: as §1, §2, §3, §5

[12] = read-out: IC50 (50% inhibitory concentration)

Compound `COC(C)=C1C(=O)C=C(C)C1=O` [Compound 6, 2-(1-methoxy-ethylidene)-4-methyl-cyclopent-4-ene-1,3-dione] has an IC50 [1] of 5 µg/mL (≈ 30.1 µM), an IC50 [2, 12] of 2 µg/mL (≈ 12 µM) and an MFC ([2]; read-out: MFC) of 20 µg/mL (≈ 120 µM). The MIC ([2]; read-out: MIC) was 5 µg/mL (≈ 30.1 µM), the IC50 [3, 12] was 3.5 µg/mL (≈ 21.1 µM) and the MIC ([3]; read-out: MIC) was 5 µg/mL (≈ 30.1 µM). It also gave an IC50 [4] of 10 µg/mL (≈ 60.2 µM).

`Cc1cc(C2CC2)nc(Nc2ccccc2)n1` [Cyprodinil] was tested, and the “Mean percent fungal growth inhibition of Botrytis cinerea” value ([5]; 0.3 μm, 48 hrs) was −96.6 ± 2.3%, the “Mean percent fungal growth inhibition of Botrytis cinerea” value ([5]; 0.3 μm, 72 hrs) was 26.56 ± 14.1% and the “Mean percent fungal growth inhibition of Botrytis cinerea” value ([5]; 3.0 μm, 48 hrs) was −90.2 ± 3.3%. For the same compound, the “Mean percent fungal growth inhibition of Botrytis cinerea” value ([5]; 3.0 μm, 72 hrs) was −81.4 ± 9.2%, the “Mean percent fungal growth inhibition of Botrytis cinerea” value ([5]; 30 μm, 48 hrs) was −94.2 ± 2.1% and the “Mean percent fungal growth inhibition of Botrytis cinerea” value ([5]; 30 μm, 72 hrs) was −96.2 ± 1.5%. For the same compound, the “Mean percent fungal growth inhibition of Colletotrichum acutatum” value ([6]; 0.3 μm, 48 hrs) was −102.2 ± 0.9%, the “Mean percent fungal growth inhibition of Colletotrichum acutatum” value ([6]; 0.3 μm, 72 hrs) was −94.5 ± 4.4% and the “Mean percent fungal growth inhibition of Colletotrichum acutatum” value ([6]; 3.0 μm, 48 hrs) was −98.1 ± 0.7%. For the same compound, the “Mean percent fungal growth inhibition of Colletotrichum acutatum” value ([6]; 3.0 μm, 72 hrs) was −98.3 ± 0.6%, the “Mean percent fungal growth inhibition of Colletotrichum acutatum” value ([6]; 30 μm, 48 hrs) was −99.7 ± 0.7% and the “Mean percent fungal growth inhibition of Colletotrichum acutatum” value ([6]; 30 μm, 72 hrs) was −99.0 ± 0.3%. For the same compound, the “Mean percent fungal growth inhibition of Colletotrichum fragariae” value ([7]; 0.3 μm, 48 hrs) was −94.1 ± 1.4%, the “Mean percent fungal growth inhibition of Colletotrichum fragariae” value ([7]; 0.3 μm, 72 hrs) was −54.1 ± 19.3% and the “Mean percent fungal growth inhibition of Colletotrichum fragariae” value ([7]; 3.0 μm, 48 hrs) was −89.0 ± 1.6%. For the same compound, the “Mean percent fungal growth inhibition of Colletotrichum fragariae” value ([7]; 3.0 μm, 72 hrs) was −76.7 ± 4.7%, the “Mean percent fungal growth inhibition of Colletotrichum fragariae” value ([7]; 30 μm, 48 hrs) was −95.5 ± 0.5% and the “Mean percent fungal growth inhibition of Colletotrichum fragariae” value ([7]; 30 μm, 72 hrs) was −92.5 ± 3.2%. For the same compound, the “Mean percent fungal growth inhibition of Colletotrichum gloeosporoides” value ([8]; 0.3 μm, 48 hrs) was −89.9 ± 2.7%, the “Mean percent fungal growth inhibition of Colletotrichum gloeosporoides” value ([8]; 0.3 μm, 72 hrs) was −62.9 ± 9.3% and the “Mean percent fungal growth inhibition of Colletotrichum gloeosporoides” value ([8]; 3.0 μm, 48 hrs) was −85.4 ± 6.6%. The “Mean percent fungal growth inhibition of Colletotrichum gloeosporoides” value ([8]; 3.0 μm, 72 hrs) was −76.4 ± 6.3%, the “Mean percent fungal growth inhibition of Colletotrichum gloeosporoides” value ([8]; 30 μm, 48 hrs) was −95.1 ± 1.0% and the “Mean percent fungal growth inhibition of Colletotrichum gloeosporoides” value ([8]; 30 μm, 72 hrs) was −91.1 ± 1.6%. The “Mean percent fungal growth inhibition of Fusarium oxysporum” value ([9]; 0.3 μm, 48 hrs) was 16.4 ± 3.9%, the “Mean percent fungal growth inhibition of Fusarium oxysporum” value ([9]; 0.3 μm, 72 hrs) was 7.9 ± 2.9% and the “Mean percent fungal growth inhibition of Fusarium oxysporum” value ([9]; 3.0 μm, 48 hrs) was 2.6 ± 2.6%. For the same compound, the “Mean percent fungal growth inhibition of Fusarium oxysporum” value ([9]; 3.0 μm, 72 hrs) was 1.8 ± 2.7%, the “Mean percent fungal growth inhibition of Fusarium oxysporum” value ([9]; 30 μm, 48 hrs) was −67.4 ± 4.3% and the “Mean percent fungal growth inhibition of Fusarium oxysporum” value ([9]; 30 μm, 72 hrs) was −41.5 ± 5.1%. The “Percent change in fungal growth vs control (negative = inhibition)” value (“Percent change … (negative = inhibition)” for short) ([10]; 0.3 μm, 120 hrs) was −51.4 ± 5.9%, the “Percent change … (negative = inhibition)” value ([10]; 0.3 μm, 144 hrs) was −46.3 ± 6.0% and the “Percent change … (negative = inhibition)” value ([10]; 3.0 μm, 120 hrs) was −64.5 ± 10.7%. The “Percent change … (negative = inhibition)” value ([10]; 3.0 μm, 144 hrs) was −72.6 ± 3.9%, the “Percent change … (negative = inhibition)” value ([10]; 30 μm, 120 hrs) was −86.8 ± 1.3% and the “Percent change … (negative = inhibition)” value ([10]; 30 μm, 144 hrs) was −81.5 ± 2.5%. The “Mean percent fungal growth inhibition of Phomopsis viticola” value ([11]; 0.3 μm, 120 hrs) was −219 ± 122.1%, the “Mean percent fungal growth inhibition of Phomopsis viticola” value ([11]; 3.0 μm, 120 hrs) was −184.6 ± 87.0% and the “Mean percent fungal growth inhibition of Phomopsis viticola” value ([11]; 3.0 μm, 144 hrs) was 451.7 ± 331.5%. The “Mean percent fungal growth inhibition of Phomopsis viticola” value ([11]; 30 μm, 120 hrs) was −176.2 ± 48.2% and the “Mean percent fungal growth inhibition of Phomopsis viticola” value ([11]; 30 μm, 144 hrs) was 80.4 ± 111.6%.
